Measured values reported in patent US11535595B2, “Isoquinoline sulfonyl chloride acid addition salts and method of manufacture thereof” (D. WESTERN THERAPEUTICS INSTITUTE, INC., priority 2018, dated 2022).

Cl.O=S(=O)(Cl)c1ccc2cnccc2c1
melting point: 102 °C (dec.)

c1ccc(CSc2ccc3cnccc3c2)cc1 [compound (4), 6-(benzylthio)isoquinoline]
melting point: 80 °C
